Measured values published in patent publication US20030234382A1, “Sterilizing composition and method for sterilizing using the same” (NIPPON PEROXIDE CO., LTD., priority 2002, published 2003).

System: chaetomium spore
Test: Sterilizing power test (D value) against chaetomium spores
Type: cell-based
Conditions: 40° C.; chaetomium spore solution 4×10^6 CFU/ml; peracetic acid and agent concentrations per experiment (c1-c3)
Method: 95 g of tap water was added to 5 g of an equilibrated peracetic acid solution containing 4 wt % of peracetic acid, 16 wt % of hydrogen peroxide and 15 wt % of acetic acid, and the resultant mixture was stirred to prepare a uniform aqueous solution. A peracetic acid concentration of the aqueous solution thus prepared was 2,000 ppm.
Each of sterilizing power test sample solutions was prepared by adding a predetermined amount of each of peracetic acid sterilizing power-improving agents shown in the following Table 1 to the peracetic acid aqueous solution prepared in the above paragraph (a) and stirring the mixture.
100 ml of the above prepared test sample solution was placed in an Erlenmeyer flask, and was maintained at 40° C. 1 ml of a chaetomium spore solution having an inoculated bacteria number of 4×10^6 CFU/ml was inoculated therein, and 1 ml of a sample was taken from the Erlenmeyer flask respectively at 10 seconds, 20 seconds, 30 seconds, 60 seconds and 120 seconds after the inoculation. […] Thereafter, a number of live bacteria remaining in each sample optionally diluted was measured in accordance with plate mix-diluting cuture method using a potato dextrose agar medium, and a D value (time (unit: minute) taken to reduce a bacteria number to 1/10) was determined as a standard of sterilizing power. […]

With `OCCc1ccccc1` [compound 8] the “D40 (D value: time taken to reduce a bacteria number to 1/10)” value was 238 min.
